According to patent publication US10329276B2, “Salt and crystalline forms thereof of a drug” (AbbVie Inc., priority 2004, dated 2019):
Values after ≈ are worked out from the molar mass of the structure shown.

Tests used:
Assay type in all cases: physicochemical
[1] = Solubility in different buffered solutions at 25° C.
Description: Solubilities of 1-(6-amino-3,5-difluoropyridin-2-yl)-8-chloro-6-fluoro-1,4-dihydro-7-(3-hydroxyazetidin-1-yl)-4-oxo-3-quinolinecarboxylic acid in different buffered solutions at 25° C. are shown in TABLE 1.

[2] = Solubility in different base solutions at 25° C. (free acid); conditions: for solubility: aqueous buffer
Description: Solubilities of 1-(6-amino-3,5-difluoropyridin-2-yl)-8-chloro-6-fluoro-1,4-dihydro-7-(3-hydroxyazetidin-1-yl)-4-oxo-3-quinolinecarboxylic acid in different base solutions at 25° C. are shown in TABLE 2.

[3] = Solubility of the trihydrate salt in different base solutions at 25° C.
Description: The solubility of D-glucitol, 1-deoxy-1-(methylamino)-, 1-(6-amino-3,5-difluoropyridin-2-yl)-8-chloro-6-fluoro-1,4-dihydro-7-(3-hydroxyazetidin-1-yl)-4-oxo-3-quinolinecarboxylate trihydrate (salt) in different base solutions at 25° C. is shown in TABLE 3.

[4] = 0.01M meglumine, final pH 9.00, 25° C.
[5] = 0.1M meglumine, final pH 9.83, 25° C.
[6] = 1M meglumine, final pH 10.85, 25° C.

Nc1nc(-n2cc(C(=O)O)c(=O)c3cc(F)c(N4CC(O)C4)c(Cl)c32)c(F)cc1F [1-(6-amino-3,5-difluoropyridin-2-yl)-8-chloro-6-fluoro-1,4-dihydro-7-(3-hydroxyazetidin-1-yl)-4-oxo-3-quinolinecarboxylic acid]
solubility ([1]; 0.1 HCl (printed 0.1 HC1), simulated gastric fluid, 0.1 HC1, final pH 0.8, 25° C.): 3.26 µg/mL (≈ 0.0074 mM)
solubility ([1]; aqueous buffer, 0.1M NaOH, final pH 8.4, 25° C.): 3400 µg/mL (≈ 7.71 mM)
solubility ([1]; aqueous buffer, Phosphate Buffer 8.0, final pH 7.8, 25° C.): 651 µg/mL (≈ 1.48 mM)
solubility ([1]; aqueous buffer, citrate buffer 4.0, final pH 4.2, 25° C.): 3.44 µg/mL (≈ 0.0078 mM)
solubility ([1]; aqueous buffer, citrate buffer 5.0, final pH 5.1, 25° C.): 3.33 µg/mL (≈ 0.00756 mM)
solubility ([1]; aqueous buffer, glycine buffer 9.0, final pH 8.2, 25° C.): 2490 µg/mL (≈ 5.65 mM)
solubility ([1]; aqueous buffer, phosphate buffer 6.8, final pH 6.8, 25° C.): 66.8 µg/mL (≈ 0.152 mM)
solubility ([1]; aqueous buffer, phosphate buffer 7.4, final pH 7.4, 25° C.): 283 µg/mL (≈ 0.642 mM)
solubility ([1]; organic solvent or mixture, ethanol, 25° C.): 867 µg/mL (≈ 1.97 mM)
solubility ([1]; saline or isotonic, saline, final pH 5.8-5.9, 25° C.): 13 µg/mL (≈ 0.0295 mM)
Ksp (M^2) ([2]; 0.5M KOH): 1.69 × 10^−2 M^2
Swater ([2]; 0.5M KOH): 57.4 mg/mL
Ksp (M^2) ([2]; 1M L-arginine): 4.81 × 10^−4 M^2
Swater ([2]; 1M L-arginine): 9.67 mg/mL
Ksp (M^2) ([2]; 1M NaOH): 1.66 × 10^−2 M^2
Swater ([2]; 1M NaOH): 56.8 mg/mL
Ksp (M^2) ([2]; 1.0M TRIS): 1.619 × 10^−4 M^2
Swater ([2]; 1.0M TRIS): 4.8 mg/mL
Ksp (M^2) ([2]; 1M ethanolamine): 2.04 × 10^−3 M^2
Swater ([2]; 1M ethanolamine): 19.9 mg/mL
Ksp (M^2) ([2]; 1M meglumin): 2.81 × 10^−3 M^2
Swater ([2]; 1M meglumin): 23.6 mg/mL
solubility ([2]; 0.5M KOH): 24400 µg/mL (≈ 55.4 mM)
solubility ([2]; 1M L-arginine): 11200 µg/mL (≈ 25.4 mM)
solubility ([2]; 1M NaOH): 8330 µg/mL (≈ 18.9 mM)
solubility ([2]; 1.0M TRIS): 5760 µg/mL (≈ 13.1 mM)
solubility ([2]; 1M ethanolamine): 24900 µg/mL (≈ 56.5 mM)
solubility ([2]; 1M meglumin): 32100 µg/mL (≈ 72.8 mM)

CNC[C@H](O)[C@@H](O)[C@H](O)[C@H](O)CO.Nc1nc(-n2cc(C(=O)O)c(=O)c3cc(F)c(N4CC(O)C4)c(Cl)c32)c(F)cc1F.O.O.O [D-glucitol, 1-deoxy-1-(methylamino)-, 1-(6-amino-3,5-difluoropyridin-2-yl)-8-chloro-6-fluoro-1,4-dihydro-7-(3-hydroxyazetidin-1-yl)-4-oxo-3-quinolinecarboxylate trihydrate (salt)]
Ksp (M^2) [3, 4]: 4.71 × 10^−3 M^2
solubility [3, 4]: 32400 µg/mL
Ksp (M^2) [3, 5]: 4.16 × 10^−3 M^2
solubility [3, 5]: 32200 µg/mL
Ksp (M^2) [3, 6]: 3.34 × 10^−3 M^2
solubility [3, 6]: 30800 µg/mL
Ksp (M^2) ([3]; water, final pH 8.78, 25° C.): 5.00 × 10^−3 M^2
solubility ([3]; water, final pH 8.78, 25° C.): 33900 µg/mL
